Test results reported in patent publication US6713057B1, “Compositions and methods for modulating serum cholesterol” (The Johns Hopkins University, priority 1999, dated 2004).
One block for each molecule: values may come before it.

What was measured:
SREBP-1 [1] = test: SREBP-1 proteolysis (maturation) assay, Western immunoblot of nuclear fractions, HH-25 hepatocytes; assay type: cell-based, human; conditions: for induction of SREBP-1 maturation (increase in mature SREBP-1), in words: HH-25 hepatocytes, sterol independent
Description: FIGS. 2A-2C illustrate effects of TNF-α sphingomyelinase and C2-ceramide on the kinetics of SREBP-1 maturation—FIGS. 2A-2C is explained in more detail as follows: Cells were maintained in media supplemented with 1 μg/ml 25-hydroxy cholesterol and 15 μg/ml cholesterol for 24 hours before the experiment. The cells were treated for the indicated time as described in materials and methods. The cells were then harvested in PBS, pelleted and frozen. Lysis and nuclear fractionation were performed as described. Nuclear fractions (50 μg of protein) were electrophoresed on a 7.5% polyacrylamide gel and transferred to a PVDF membrane. Western blotting was performed as described. Band intensity was quantified via densitometry. Error bars represent ±one standard deviation from the mean. 2A) The kinetics of SREBP maturation as measured by the increase in mature SREBP-1 are plotted. Fold increase was calculated by comparing each time point to the corresponding control value (TNF-α is represented by stippled bars, bacterial sphingomyelinase is represented by light gray bars and C2-ceramide by the dark bars.) 2B) Cells were treated with TNF-α (10 ng/ml) and prepared as described above. The bands corresponding to the precursor and mature forms of SREBP-1 were quantified and their ratio plotted. 2C) Representative Western blots from which numerical data was derived. Incubation time is indicated above and applies to all conditions. The membranes were exposed to film for 15 seconds. P and M denote the precursor and mature forms of SREBP-1 respectively.
FIGS. 3A-3C show effects of TNF-α, sphingomyelinase and C2-ceramide concentration on SREBP-1 maturation—The FIGS. 3A-3C are explained in more detail as follows. […] Nuclear pellets were prepared and electrophoresed (50 μg of protein). The bands corresponding to the precursor and mature forms of SREBP-1 were quantified. The precursor to mature ratios were normalized to a single control to facilitate comparison. The control ratio was arbitrarily assigned a value of 1. A Unit of sphingomyelinase activity hydrolyzes 1.0 μmol of sphingomyelin per minute at 37° C. FIG. 3A (ng/ml TNF-α); FIG. 3B (mUnits of sphingomyelinase); FIG. 3C (micromolar C2-ceramide).
HH-25 cells were grown in alpha-minimal essential media supplemented with 100 units/ml penicillin, 100 µg/ml streptomycin, […], 0.1 μM selenium, 5.5 μg/ml transferrin, 0.5 μg/ml linoleic acid and 10% fetal bovine serum (media A). The cells were incubated in serum free F10 media for 30 to 60 minutes prior to initiating treatment with TNF-α, C2-ceramide or sphingomyelinase.
Following treatment, the cells were washed with 5 ml of PBS and pelleted at 1500×g for 10 minutes at 4° C. The pellet was stored at −70° C. and lysed in 0.5 ml buffer A (10 mM HEPES pH 7.4, 5 mM EDTA, 0.25 mM EGTA, 50 mM NaF, 7 mM β-mercaptoethanol, 0.35M sucrose, 0.1% NP-40 and protease inhibitors 1 mM PMSF, 2 μg/ml aprotinin, 10 μg/ml leupeptin and 5 μg/ml pepstatin). The lysate was centrifuged at 12,000×g for 15 minutes at 4° C. to prepare a nuclear fraction. The protein concentration of these samples was determined by the method of Lowry et al. al. (19).
50 μg of nuclear protein was separated by gel electrophoresis on a 7.5% polyacrylamide gel. Gels were calibrated by high range molecular weight markers (Bio-Rad product #161-0303, New York, N.Y.) which were transferred to a polyvinyl difluoride (PVDF) membrane and visualized with coomassie staining. Rabbit polyclonal antibodies against SREBP-1 were used at 0.5 μg/ml according to the instructions of the manufacturer. The antibody was visualized with horseradish peroxidase conjugated anti-rabbit IgG made in donkey (Amersham) using the Enhanced Chemiluminescence (ECL) Western Blotting Detection System Kit (Amersham). PVDF membranes were exposed to Hyperfilm ECL (Amersham) for the indicated time. Immunoblots were quantified via densitometry performed on a PDI densitometer scanner (model 20J7) coupled to a SPARC IRC workstation.

SREBP-1 [2] = test: Indirect immunofluorescence of SREBP-1 subcellular localization; assay type: cell-based, human; conditions: 30 minutes after initiating treatment; TNF-α 10 ng/ml, sphingomyelinase 100 mUnits, C2-ceramide 10 μM
Description: FIGS. 5A-5D show indirect immunofluorescence of SREBP-1. FIGS. 5A-5D are discussed in more detail as follows. SREBP-1 was visualized with rabbit polyclonal antibodies directed towards the N-terminal DNA binding domain which is common to both the precursor and mature forms. Cells were maintained in media supplemented with 1 μg/ml 25-hydroxycholesterol and 15 μg/ml cholesterol for 24 hours before the experiment. Immunofluorescence was performed as described. All magnifications are 40× and all photographs were taken of samples that were fixed 30 minutes after initiating treatment. FIG. 5A) Control cells, FIG. 5B) Cells treated with TNF-α (10 ng/ml), FIG. 5C) Cells treated with sphingomyelinase (100 mUnits), FIG. 5D) Cells treated with C2-ceramide (10 μM).
Cultured HH-25 cells were grown on coverslips and treated as described. After treatment, the cells were washed 3×5 minutes with PBS containing 1 mM MgCl2 and 0.1 mM CaCl2 (solution A). The cells were fixed with 3% paraformaldehyde in solution A for 10 minutes and permeabilized with 0.5% Triton X-100 in solution A for 6 minutes at room temperature. The coverslips were then washed 3×5 minutes with solution A.
Primary antibody (anti-SREBP1) was used at a dilution of […] in PBS and applied for 1 hour with gentle shaking. The cells were washed as above and a FITC conjugated anti-rabbit IgG secondary antibody, was applied for ½ hour according to the instructions of the manufacturer. The coverslips were washed, mounted on microscope slides and were viewed and photographed at the indicated magnification on a Zeiss Axiovert 25 fluorescence microscope.

SREBP-1 [3] = test: Electrophoretic mobility shift assay, SREBP-1 binding to SRE probe; assay type: cell-based, human; conditions: TNF-α 10 ng/ml, sphingomyelinase 100 mUnits, C2-ceramide 10 μM
Description: FIGS. 6A-6D show electrophoretic mobility shift assays. FIGS. 6A-D are explained in more detail as follows. Cells were maintained in sterol supplemented media. Nuclear pellets were prepared and assayed as described in materials and methods. Probe that has been bound by mature SREBP-1 is indicated as “Bound”. Unbound probe is indicated as “Free”. The kinetics (in minutes) of SREBP-1 binding to the probe in response to treatment with (FIG. 6A). TNF-α (10 ng/ml), (FIG. 6B) sphingomyelinase (100 mUnits) and (FIG. 6C) C2-ceramide ([…]). (FIG. 6D). The cells were treated with either TNF-α (10 ng/ml), sphingomyelinase (100 mUnits) or C2-ceramide (10 μM) for 15 minutes. Supershift assays were then performed with antibodies raised against the DNA binding domain of SREBP-1. The presence or absence of antibody is indicated by (+) and (−) respectively. Pre-immune IgG was used as a control.
Gel mobility shift assays were performed as follows. Each 20 μl reaction mixture contained 8-10 μg of nuclear protein plus a α-[^32P]-labeled 25-base pair oligonucleotide probe containing the SREBP-binding site (14) in binding buffer (10 mM Hepes, pH 7.5, 0.5 mM spermidine, 0.15 mM EDTA, 10 mM dithiothreitol, 0.35 mM sucrose). The reaction mixture was incubated at room temperature for 15 min and loaded directly onto a 6.5% polyacrylamide (49:0.6 acrylamide/bisacrylamide) gel in a buffer of 25 mM Tris borate (pH 8.0), 0.25 mM EDTA. In some experiments, antisera specific for SREBP or preimmune sera were added to reaction mixtures to determine the composition of protein-probe complexes. For these “supershift” assays, extracts were incubated with 1 μl of preimmune sera or an equal volume of anti-SREBP antisera at 4° C. for 30 min prior to addition of α-[^32P]-labeled probe. In all experiments, proteins were separated by electrophoresis at 200 V for 2 h at room temperature. Gels were dried and exposed to Kodak XAR film with intensifying screens. Assays were repeated with nuclear extracts obtained from three unique experiments and evaluated by phosphoimage analysis to ensure reproducibility of results.

Description for HH-25 cells: Cells were treated with either TNF-α, sphingomyelinase or C2-ceramide for 1 hour at concentrations identical to those used in the SREBP-1 maturation studies. The cells were then washed twice with minimal essential medium and refed with media A for 6 hours. […] Genomic DNA was electrophoresed and stained with ethidium bromide.

Molecule: CCCCCCCCCCCCCCC[C@@H](O)[C@H](CO)NC(C)=O [C2-dihydroceramide, reference compound]
- induction of SREBP-1 maturation (increase in mature SREBP-1), in words (SREBP-1 [1]): could not be induced

Molecule: PDGF
- induction of SREBP-1 maturation (increase in mature SREBP-1), in words (SREBP-1 [1]): could not be recapitulated

- amount of probe bound (electrophoretically retarded) by mature SREBP-1 (SREBP-1 [3]): increases
Molecule: Sphingomyelinase
- induction of apoptosis (160 bp DNA ladder) (HH-25 cells): did not induce apoptosis
- subcellular localization of SREBP-1 (staining pattern) (SREBP-1 [2]): intense nuclear staining and little extra-nuclear staining
- decrease in the precursor to mature ratio (SREBP-1 [1]; 250 milliunits of sphingomyelinase activity): 80%
- increase in mass of the mature form of SREBP-1 (SREBP-1 [1]; after 15 minutes of treatment, sterol supplemented media): 2.5 fold
- persistence of the increase in mature SREBP-1 (SREBP-1 [1]; after 60 minutes): persisted after 60 minutes
